The values below come from patent US7071166B2, “Skin wound healing promoters” (Santen Pharmacetical Co., Ltd., priority 2000, dated 2006).

In assay [1] the test system is ear tissue pieces (epidermal cell layer). As to the kind of experiment: Action on epidermal extension (cultured rat ear tissue pieces). The assay is classed as cell-based, rats (Spraque-Dawley). The settings on record: for Extension length of epidermis: TCM 199 medium, cultured 24 hours, substance P or FGLM 20 μM, IGF-I 10 ng/ml, average of 12 samples; for Epidermal extension compared with control (in words): each drug used solely. As for the experimental part: Excessive pentobarbital was administered to rats (Spraque-Dawley), and then ear tissue pieces of about 2×4 mm were prepared. Into a 60 mm Petri dish was put 18 ml of each TCM 199 culture medium containing each of test drugs in Table 1 [substance P, FGLM (SEQ ID NO: 2), IGF-I, substance P+IGF-I and FGLM (SEQ ID NO: 2)+IGF-I], and […] were added to each Petri dish (12 samples: three sections per group). The tissue pieces were cultured in a CO2 incubator (37° C.·5% CO2) for 24 hours, the tissue pieces were fixed with ethanol-acetic acid (volume ratio 95:5) to prepare three tissue sections per tissue piece according to the conventional method. The tissue sections were stained with hematoxylin-eosin, and then length of a epidermal cell layer having extended cut surfaces was measured. The tissue pieces were cultured under the same condition as mentioned above using a culture medium containing no test drug to prepare controls. The values in the table are the average of 12 samples.

The subject of assay [2] is full-thickness wounds on back skin of diabetes rats (DM Rat). As to the kind of experiment: Action on skin wound healing, streptozotocin diabetes rats. The assay is classed as in vivo, rats (Wistar). The settings on record: ointment once a day, substance P 2.5 mg/ml, IGF-I 1 μg/ml, average of five. As for the experimental part:
(§1) Streptozotocin (70 mg/kg BW) dissolved in a citric acid buffer was injected intravenously into tails of rats (Wistar) under diethyl ether inhalation anesthesia to prepare diabetes rats (DM Rat) (five rats per group). An equal amount of the citric acid buffer alone was injected intravenously into rats (Wistar) to prepare non-diabetes rats (non DM Rat) (five rats per group). Four weeks after the intravenous injection, the back of all the rats was shaved with hair clippers under diethyl ether inhalation anesthesia, and hair was removed with cream for depilation. After 24 hours, five full-thickness (i.e. epidermis and dermis) wounds were made on back skin in equal intervals with a trepan for skin biopsy having a diameter of 5 mm. Confirming hemostasis, each ointment in Tables 2 and 3 was applied on the wound once a day. Just before applying the ointment once a day, the back wounds were photographed, and their areas were measured. […] The values in these tables are the average of five samples.

The subject of assay [3] is full-thickness wounds on back skin of non-diabetes rats (non DM Rat). As to the kind of experiment: Action on skin wound healing, non-diabetes rats. The class given is in vivo, rats (Wistar). The settings on record: ointment once a day, substance P 2.5 mg/ml, IGF-I 1 μg/ml, average of five. The procedure:
as §1

Where a SMILES comes first, the peptide text is derived from it.

Take `CSCC[C@H](NC(=O)[C@H](CC(C)C)NC(=O)CNC(=O)[C@@H](N)Cc1ccccc1)C(N)=O` [FGLM, Phe-Gly-Leu-Met-NH2] (H-FGLM-NH2): in assay [1], the “Extension length of epidermis” value was 55.37 μm and the “Epidermal extension compared with control (in words)” value is recorded as “almost as long as that in the case where the control is used”.

`CSCC[C@H](NC(=O)[C@H](CC(C)C)NC(=O)CNC(=O)[C@H](Cc1ccccc1)NC(=O)[C@H](Cc1ccccc1)NC(=O)[C@H](CCC(N)=O)NC(=O)[C@H](CCC(N)=O)NC(=O)[C@@H]1CCCN1C(=O)[C@H](CCCCN)NC(=O)[C@@H]1CCCN1C(=O)[C@@H](N)CCCNC(=N)N)C(N)=O` [Substance P, Arg-Pro-Lys-Pro-Gln-Gln-Phe-Phe-Gly-Leu-Met-NH2]: the “Skin wound area of diabetes rat” value in assay [2] (1st day) is reported as 100%; in assay [2] (After 1 day), 90%; in assay [2] (After 4 days), 77%; in assay [2] (After 7 days), 68%; in assay [2] (After 10 days), 44%. In addition, the “Skin wound area of non-diabetes rat” value in assay [3] (1st day) is 100%; in assay [3] (After 2 days) it was 88%; in assay [3] (After 4 days) it was 74%; in assay [3] (After 6 days), 59%. For the same compound, the “Extension length of epidermis” value in assay [1] worked out at 72.57 μm. The “Epidermal extension compared with control (in words)” value in assay [1] is given as “almost as long as that in the case where the control is used”.

Take IGF-I: insulin-like growth factor-I: the “Skin wound area of diabetes rat” value in assay [2] (1st day) was 100%; in assay [2] (After 1 day) it was 89%; in assay [2] (After 4 days) it was 64%; in assay [2] (After 7 days), 52%; in assay [2] (After 10 days) it was 27%. The “Skin wound area of non-diabetes rat” value in assay [3] (1st day) turned out to be 100%; in assay [3] (After 2 days) it was 81%; in assay [3] (After 4 days), 66%; in assay [3] (After 6 days) it was 43%. For the same compound, the “Extension length of epidermis” value in assay [1] was 50.68 μm. Besides, the “Epidermal extension compared with control (in words)” value in assay [1] is “almost as long as that in the case where the control is used”.
